Laboratory results published in PubChem BioAssay AID330 (DTP/NCI, 2004).
Values joined by “and” are separate entries in the source; they are usually repeats but may differ in a detail not shown here. Equal entries are not always repeated. Toxic doses and inconclusive results are not listed. How the source made its calls: active means survival T/C of 150% or more; inactive means T/C below 125% in these data.

Test system: P388 leukemia ip, CD2F1 mice, survival T/C
Assay: NCI In Vivo Anticancer Drug Screen. Data for tumor model P388 Leukemia (intraperitoneal) in CD2F1 (CDF1) mice
Conditions: endpoint: median survival time, higher = longer survival
How it was run: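 Mice carrying the transplanted tumor received test compound or vehicle. Survival was recorded in each group, and the value is the treated-group measurement divided by that of the vehicle-treated control group.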

[1] = dose: 50.0 mg/kg/injection, schedule: Q01DX009 (ip), vehicle: saline with Tween-80
[2] = dose: 100.0 mg/kg/injection, schedule: Q01DX009 (ip), vehicle: saline with Tween-80
[3] = dose: 200.0 mg/kg/injection, schedule: Q01DX009 (ip), vehicle: saline with Tween-80
[4] = dose: 50.0 mg/kg/injection, schedule: Q01DX005 (ip), vehicle: Klucel (hydroxypropylcellulose) (HPC)
[5] = dose: 100.0 mg/kg/injection, schedule: Q01DX005 (ip), vehicle: Klucel (hydroxypropylcellulose) (HPC)
[6] = dose: 200.0 mg/kg/injection, schedule: Q01DX005 (ip), vehicle: Klucel (hydroxypropylcellulose) (HPC)
[7] = dose: 50.0 mg/kg/injection, schedule: Q01DX009 (ip), vehicle: saline
[8] = dose: 100.0 mg/kg/injection, schedule: Q01DX009 (ip), vehicle: saline
[9] = dose: 100.0 mg/kg/injection, schedule: Q01DX001 (ip), vehicle: saline with Tween-80
[10] = dose: 200.0 mg/kg/injection, schedule: Q01DX001 (ip), vehicle: saline with Tween-80
[11] = dose: 400.0 mg/kg/injection, schedule: Q01DX001 (ip), vehicle: saline with Tween-80

Measured: T/C

CC1=CC=CC2=NC(=O)CCN12
inactive: dose: 100.0 mg/kg/injection, schedule: Q04DX003 (ip), vehicle: saline with Tween-80 100 % of control | dose: 200.0 mg/kg/injection, schedule: Q04DX003 (ip), vehicle: saline with Tween-80 100 % of control

CC(C)(C)CC(C)(C)c1ccc(OCc2ccc(F)cc2)cc1
inactive: [1] 99 % of control | [2] 95 % of control | [3] 98 % of control

COC(=O)c1ccccc1NC(CCN1CCN(c2ccccc2)CC1)=NC(C)(C)C
inactive: dose: 50.0 mg/kg/injection, schedule: Q01DX009 (ip), vehicle: Klucel (hydroxypropylcellulose) (HPC) 100 % of control | dose: 100.0 mg/kg/injection, schedule: Q01DX009 (ip), vehicle: Klucel (hydroxypropylcellulose) (HPC) 102 % of control

CCc1cccc(CC)c1NC(=O)C(Sc1nc(-c2cccs2)cc(C(F)(F)F)c1C#N)c1ccccc1 (stereo not given)
inactive: [4] 94 % of control | [5] 94 % of control | [6] 89 % of control

c1nc(N2CCCCC2)c2[nH]cnc2n1
inactive: [4] 109 % of control | [5] 104 % of control

CC(=O)Nc1ccc(S(=O)(=O)n2c(=O)oc3ccc(Cl)cc32)cc1
inactive: [4] 99 % of control | [5] 94 % of control | [6] 94 % of control

COC(=O)C1(C(=O)OC)N=C(C)OO1
inactive: dose: 6.25 mg/kg/injection, schedule: Q01DX009 (ip), vehicle: saline 99 % of control and 97 % of control | dose: 12.5 mg/kg/injection, schedule: Q01DX009 (ip), vehicle: saline 101 % of control and 107 % of control | dose: 25.0 mg/kg/injection, schedule: Q01DX009 (ip), vehicle: saline 91 % of control and 97 % of control | [7] 96 % of control and 97 % of control | [8] 101 % of control

Nc1ncccc1OCc1ccccc1
inactive: [7] 100 % of control and 110 % of control | [8] 107 % of control and 116 % of control | dose: 200.0 mg/kg/injection, schedule: Q01DX009 (ip), vehicle: saline 113 % of control and 98 % of control | dose: 400.0 mg/kg/injection, schedule: Q01DX009 (ip), vehicle: saline 100 % of control and 95 % of control

CCOC(=O)C1=CC(Oc2cc(NS(=O)(=O)c3ccccc3)ccc2O)C(C(=O)OCC)=CC1Oc1cc(NS(=O)(=O)c2ccccc2)ccc1O (stereo not given)
inactive: dose: 37.5 mg/kg/injection, schedule: Q01DX001 (ip), vehicle: saline with Tween-80 105 % of control | dose: 75.0 mg/kg/injection, schedule: Q01DX001 (ip), vehicle: saline with Tween-80 100 % of control | dose: 150.0 mg/kg/injection, schedule: Q01DX001 (ip), vehicle: saline with Tween-80 100 % of control

CC1=C(C#N)C(C)(C)C(C#N)=C(C)N1C
inactive: dose: 25.0 mg/kg/injection, schedule: Q01DX009 (ip), vehicle: other 110 % of control | dose: 50.0 mg/kg/injection, schedule: Q01DX009 (ip), vehicle: other 111 % of control | [1] 102 % of control | dose: 100.0 mg/kg/injection, schedule: Q01DX009 (ip), vehicle: other 121 % of control | [2] 98 % of control

CC1(Br)CN(C(=S)Nc2ccccc2)C1=O (stereo not given)
inactive: dose: 50.0 mg/kg/injection, schedule: Q01DX005 (ip), vehicle: saline with Tween-80 108 % of control | dose: 100.0 mg/kg/injection, schedule: Q01DX005 (ip), vehicle: saline with Tween-80 105 % of control | dose: 200.0 mg/kg/injection, schedule: Q01DX005 (ip), vehicle: saline with Tween-80 104 % of control

N#C/C(=C1/NC(=O)c2ccccc21)c1nc2ccccc2n1CCO
inactive: dose: 6.25 mg/kg/injection, schedule: Q01DX009 (ip), vehicle: saline with Tween-80 91 % of control | dose: 12.5 mg/kg/injection, schedule: Q01DX009 (ip), vehicle: saline with Tween-80 92 % of control | dose: 25.0 mg/kg/injection, schedule: Q01DX009 (ip), vehicle: saline with Tween-80 89 % of control | [3] 89 % of control

C[n+]1c(-c2ccccc2)c2ccccn2c1Sc1n2ccccc2c(-c2ccccc2)[n+]1C
inactive: dose: 1.56 mg/kg/injection, schedule: Q01DX009 (ip), vehicle: Klucel (hydroxypropylcellulose) (HPC) 100 % of control | dose: 3.12 mg/kg/injection, schedule: Q01DX009 (ip), vehicle: Klucel (hydroxypropylcellulose) (HPC) 102 % of control | dose: 6.25 mg/kg/injection, schedule: Q01DX009 (ip), vehicle: Klucel (hydroxypropylcellulose) (HPC) 90 % of control and 97 % of control

O=C(CCc1c[nH]c2ccccc12)c1ccccc1O
inactive: dose: 60.0 mg/kg/injection, schedule: Q01DX005 (ip), vehicle: saline with Tween-80 98 % of control | dose: 120.0 mg/kg/injection, schedule: Q01DX005 (ip), vehicle: saline with Tween-80 100 % of control | dose: 240.0 mg/kg/injection, schedule: Q01DX005 (ip), vehicle: saline with Tween-80 92 % of control

CCCC1(C)COC(c2ccc(OC)cc2)OC1 (stereo not given)
inactive: [1] 103 % of control | [9] 109 % of control | [2] 112 % of control | [10] 102 % of control | [3] 103 % of control | [11] 104 % of control

COc1ccccc1/C=C(/C)[N+](=O)[O-]
inactive: dose: 10.0 mg/kg/injection, schedule: Q01DX010 (ip), vehicle: saline 109 % of control | dose: 14.0 mg/kg/injection, schedule: Q01DX010 (ip), vehicle: saline 90 % of control | dose: 22.0 mg/kg/injection, schedule: Q01DX010 (ip), vehicle: saline 100 % of control | dose: 33.0 mg/kg/injection, schedule: Q01DX010 (ip), vehicle: saline 109 % of control | dose: 50.0 mg/kg/injection, schedule: Q01DX010 (ip), vehicle: saline 100 % of control | dose: 75.0 mg/kg/injection, schedule: Q01DX010 (ip), vehicle: saline 118 % of control

CC(/C=N\Nc1ccc(C(=O)O)cc1)=N/N=C(N)N
inactive: dose: 100.0 mg/kg/injection, schedule: Q04DX003 (ip), vehicle: saline 99 % of control | dose: 200.0 mg/kg/injection, schedule: Q04DX003 (ip), vehicle: saline 98 % of control | dose: 400.0 mg/kg/injection, schedule: Q04DX003 (ip), vehicle: saline 100 % of control

N=C(N)c1ccc(-c2[nH]c3cc(C(=N)N)ccc3c2N)cc1
inactive: dose: 6.25 mg/kg/injection, schedule: Q04DX003 (ip), vehicle: saline 86 % of control | dose: 12.5 mg/kg/injection, schedule: Q04DX003 (ip), vehicle: saline 88 % of control | dose: 25.0 mg/kg/injection, schedule: Q04DX003 (ip), vehicle: saline 92 % of control

N#Cc1c(-c2ccc(Br)cc2)c(-c2ccc(Br)cc2)n[nH]c1=O
inactive: [9] 91 % of control | [10] 95 % of control | [11] 95 % of control

Cc1ccn2c(C(C)O)nnc2c1 (stereo not given)
inactive: [1] 93 % of control | [2] 90 % of control | [3] 100 % of control

CSc1cccc(N=C(N)N)c1
inactive: [7] 100 % of control | [8] 98 % of control

O=C1/C(=C/c2ccccc2)CCCC12C(c1ccccc1)N2C1CCCCC1 (stereo not given)
inactive: dose: 100.0 mg/kg/injection, schedule: Q04DX002 (ip), vehicle: Klucel (hydroxypropylcellulose) (HPC) 93 % of control | dose: 200.0 mg/kg/injection, schedule: Q04DX002 (ip), vehicle: Klucel (hydroxypropylcellulose) (HPC) 86 % of control | dose: 400.0 mg/kg/injection, schedule: Q04DX002 (ip), vehicle: Klucel (hydroxypropylcellulose) (HPC) 92 % of control

CCCCCCCN(CCCCCCC)CC(O)c1c(Br)c2ccccc2c2ccccc12 (stereo not given)
inactive: dose: 10.0 mg/kg/injection, schedule: Q01DX009 (ip), vehicle: saline with Tween-80 115 % of control | dose: 20.0 mg/kg/injection, schedule: Q01DX009 (ip), vehicle: saline with Tween-80 115 % of control | dose: 40.0 mg/kg/injection, schedule: Q01DX009 (ip), vehicle: saline with Tween-80 98 % of control

CC1(c2ccccn2)C(=O)c2ccccc2C1=O
inactive: [4] 98 % of control | [5] 100 % of control | [6] 99 % of control
